From publication PMC12784406, “IscS Kinetics in Native Mass Spectrometry Buffers Reveal Key Physiochemical Properties that Influence Enzyme Activity” (Journal of the American Society for Mass Spectrometry, 2025)

Target: T1, IscS (Escherichia coli, UniProt P0A6B7)
T1 construct: pET vector, expressed in E. coli BL21(DE3), HisTrap Ni-NTA and Sephacryl S-300 purified; homodimer
Test: methylene blue sulfide detection assay, […] nm, anaerobic
Type: biochemical
Conditions: 50 mM Tris/150 mM NaCl, pH 8.5, 37 °C, 4 mM DTT; IscS 0.5 uM, without IscU; L-cysteine varied

T1 sequence (P0A6B7 whole entry): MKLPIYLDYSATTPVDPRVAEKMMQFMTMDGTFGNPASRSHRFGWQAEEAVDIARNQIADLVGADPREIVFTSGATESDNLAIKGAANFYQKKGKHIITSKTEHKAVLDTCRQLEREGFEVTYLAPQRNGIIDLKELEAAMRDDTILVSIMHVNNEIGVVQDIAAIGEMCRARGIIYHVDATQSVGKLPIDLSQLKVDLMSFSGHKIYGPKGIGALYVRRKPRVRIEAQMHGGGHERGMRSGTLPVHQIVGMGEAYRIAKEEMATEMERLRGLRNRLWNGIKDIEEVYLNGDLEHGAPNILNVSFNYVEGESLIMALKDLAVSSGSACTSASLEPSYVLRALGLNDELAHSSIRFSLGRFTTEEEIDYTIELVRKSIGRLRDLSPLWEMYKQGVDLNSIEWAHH

## N[C@@H](CS)C(=O)O [L-cysteine]
  methylene blue sulfide detection assay, 670 nm, anaerobic: Sulfide production was quantitated at different L-cysteine concentrations to determine the k cat values
